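Five concentrations, 48 hours, 96-well plates. The concentration for 50% growth inhibition is given as GI50.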 The source made the active and inactive calls. Cut-off read from the data, not from the text of the source: active = GI50 up to about 1.1 µM and inactive = higher.
Tests used:
Test in all cases: NCI-60 cell line screen, 48 h
A498 = test system: A498
ACHN = test system: ACHN
BT-549 = test system: BT-549
COLO 205 = test system: COLO 205
HT-29 = test system: HT-29
K562 = test system: K562
KM12 = test system: KM12
M14 = test system: M14
MCF7 = test system: MCF7
MDA-MB-435 = test system: MDA-MB-435
Malme-3M = test system: Malme-3M
NCI-H226 = test system: NCI-H226
NCI/ADR-RES = test system: NCI/ADR-RES
SN12C = test system: SN12C
TK-10 = test system: TK-10
UACC-257 = test system: UACC-257
UACC-62 = test system: UACC-62
UO-31 = test system: UO-31
HCC 2998 = test system: HCC 2998
LOX IMVI = test system: LOX IMVI

| SMILES | GI50 (A498) | GI50 (ACHN) | GI50 (BT-549) | GI50 (COLO 205) | GI50 (HT-29) | GI50 (K562) | GI50 (KM12) | GI50 (M14) | GI50 (MCF7) | GI50 (MDA-MB-435) | GI50 (Malme-3M) | GI50 (NCI-H226) | GI50 (NCI/ADR-RES) | GI50 (SN12C) | GI50 (TK-10) | GI50 (UACC-257) | GI50 (UACC-62) | GI50 (UO-31) | GI50 (HCC 2998) | GI50 (LOX IMVI) |
| --- | --- | --- | --- | --- | --- | --- | --- | --- | --- | --- | --- | --- | --- | --- | --- | --- | --- | --- | --- | --- |
| COc1cc2nc(-c3cccs3)nc(Cl)c2cc1OC | 19.8 µM (inactive) | > 100 µM (inactive) | > 100 µM (inactive) | > 100 µM (inactive) | 61.7 µM (inactive) | 69.5 µM (inactive) | > 100 µM (inactive) | > 100 µM (inactive) | 23.4 µM (inactive) | > 100 µM (inactive) | > 100 µM (inactive) | > 100 µM (inactive) | > 100 µM (inactive) | > 100 µM (inactive) | > 100 µM (inactive) | 68.9 µM (inactive) | > 100 µM (inactive) | > 100 µM (inactive) | – | – |
| Cc1nc(N)c(N2CCN(C#N)CC2)c(O)n1 | > 100 µM (inactive) | > 100 µM (inactive) | > 100 µM (inactive) | > 100 µM (inactive) | > 100 µM (inactive) | > 100 µM (inactive) | > 100 µM (inactive) | > 100 µM (inactive) | > 100 µM (inactive) | > 100 µM (inactive) | > 100 µM (inactive) | > 100 µM (inactive) | > 100 µM (inactive) | > 100 µM (inactive) | > 100 µM (inactive) | > 100 µM (inactive) | – | > 100 µM (inactive) | > 100 µM (inactive) | > 100 µM (inactive) |
| O=C1/C(=C/c2ccc([N+](=O)[O-])cc2)C(=O)N(c2ccccc2)C1c1ccccc1 (stereo not drawn) | > 10 µM (inactive) | > 10 µM (inactive) | > 10 µM (inactive) | > 10 µM (inactive) | > 10 µM (inactive) | – | > 10 µM (inactive) | > 10 µM (inactive) | > 10 µM (inactive) | > 10 µM (inactive) | – | > 10 µM (inactive) | > 10 µM (inactive) | > 10 µM (inactive) | > 10 µM (inactive) | > 10 µM (inactive) | > 10 µM (inactive) | > 10 µM (inactive) | > 10 µM (inactive) | > 10 µM (inactive) |
| Cc1cc2c(cc1Cl)SC(NS(=O)(=O)c1ccc(Cl)cc1)=NS2(=O)=O | 30.4 µM (inactive) | > 100 µM (inactive) | 42.7 µM (inactive) | > 100 µM (inactive) | 47.4 µM (inactive) | 41.9 µM (inactive) | > 100 µM (inactive) | 82.2 µM (inactive) | 56.8 µM (inactive) | 91.6 µM (inactive) | – | 33.5 µM (inactive) | > 100 µM (inactive) | > 100 µM (inactive) | 30.3 µM (inactive) | 46.8 µM (inactive) | > 100 µM (inactive) | > 100 µM (inactive) | – | 49.2 µM (inactive) |
| CC(=O)N1c2ccccc2C2=NN=C(N(C)C)SC21 (stereo not drawn) | 3.17 µM (inactive) | 2.54 µM (inactive) | 9.35 µM (inactive) | 3.3 µM (inactive) | 4.86 µM (inactive) | 3.37 µM (inactive) | 3.18 µM (inactive) | 1.84 µM (inactive) | 4.06 µM (inactive) | 6.56 µM (inactive) | 3.37 µM (inactive) | 3.12 µM (inactive) | 2.75 µM (inactive) | 2.08 µM (inactive) | 9.06 µM (inactive) | 3.64 µM (inactive) | – | 1.45 µM (inactive) | 2.72 µM (inactive) | 2.1 µM (inactive) |
| O=C(C/N=C(\CN(c1ccccc1)c1ccccc1)Oc1c(Cl)cc(Cl)cc1Cl)n1cnc2ccccc21 | – | 78.2 µM (inactive) | 22.6 µM (inactive) | > 100 µM (inactive) | 44.2 µM (inactive) | 80.7 µM (inactive) | 96.6 µM (inactive) | > 100 µM (inactive) | 71 µM (inactive) | 76.6 µM (inactive) | 52.6 µM (inactive) | 19.5 µM (inactive) | 38.3 µM (inactive) | 56.2 µM (inactive) | > 100 µM (inactive) | > 100 µM (inactive) | 32.3 µM (inactive) | – | 71.6 µM (inactive) | – |
| O=C(c1ccco1)N(Cc1ccco1)C(=S)Nc1ccccc1 | – | 19.5 µM (inactive) | 17.2 µM (inactive) | 12.9 µM (inactive) | 8.71 µM (inactive) | 3.33 µM (inactive) | 8.2 µM (inactive) | 12 µM (inactive) | 4.2 µM (inactive) | 10.6 µM (inactive) | 14.7 µM (inactive) | 66.8 µM (inactive) | 21.9 µM (inactive) | 14.5 µM (inactive) | 18.8 µM (inactive) | 15.7 µM (inactive) | 14.1 µM (inactive) | 16.5 µM (inactive) | 33.1 µM (inactive) | 7.21 µM (inactive) |
| C=C1CC/C=C(/C(=O)O)CC[C@H]2[C@@H]1CC2(C)C | > 100 µM (inactive) | > 100 µM (inactive) | > 100 µM (inactive) | > 100 µM (inactive) | > 100 µM (inactive) | > 100 µM (inactive) | > 100 µM (inactive) | > 100 µM (inactive) | > 100 µM (inactive) | > 100 µM (inactive) | > 100 µM (inactive) | > 100 µM (inactive) | – | > 100 µM (inactive) | > 100 µM (inactive) | > 100 µM (inactive) | > 100 µM (inactive) | > 100 µM (inactive) | > 100 µM (inactive) | > 100 µM (inactive) |
| COc1cc2nc3c(=C(C#N)C#N)c4ccccc4n3c(=O)c2cc1OC | > 100 µM (inactive) | > 100 µM (inactive) | > 100 µM (inactive) | > 100 µM (inactive) | > 100 µM (inactive) | > 100 µM (inactive) | > 100 µM (inactive) | > 100 µM (inactive) | > 100 µM (inactive) | > 100 µM (inactive) | – | > 100 µM (inactive) | > 100 µM (inactive) | > 100 µM (inactive) | > 100 µM (inactive) | > 100 µM (inactive) | > 100 µM (inactive) | > 100 µM (inactive) | > 100 µM (inactive) | > 100 µM (inactive) |
| Cc1nc(Nc2ccccc2Cl)sc1C(=O)CC(=O)C(=O)Nc1c(Cl)cccc1Cl | – | 45 µM (inactive) | 24.2 µM (inactive) | 18.6 µM (inactive) | 25.4 µM (inactive) | 41.8 µM (inactive) | 25.4 µM (inactive) | 29.9 µM (inactive) | 28.2 µM (inactive) | 22.9 µM (inactive) | – | 17.5 µM (inactive) | 22.3 µM (inactive) | 44 µM (inactive) | > 100 µM (inactive) | 44.4 µM (inactive) | 45.6 µM (inactive) | 23 µM (inactive) | 39.5 µM (inactive) | 27.4 µM (inactive) |
| CC1(C)OC[C@@H](/C=C\CCO[Si](c2ccccc2)(c2ccccc2)C(C)(C)C)N1C(=O)c1ccccc1 | 13.9 µM (inactive) | 12.3 µM (inactive) | 18.5 µM (inactive) | 8.32 µM (inactive) | 4.14 µM (inactive) | 3.1 µM (inactive) | 7.96 µM (inactive) | 7.08 µM (inactive) | 6.32 µM (inactive) | 13.2 µM (inactive) | – | 7.94 µM (inactive) | 9.14 µM (inactive) | 11.1 µM (inactive) | 11.2 µM (inactive) | 3.49 µM (inactive) | 9.91 µM (inactive) | 11.9 µM (inactive) | 7.46 µM (inactive) | 13.6 µM (inactive) |
| O=C(/C(=C/c1cccs1)c1ccccc1)c1ccccc1 | > 100 µM (inactive) | 39.4 µM (inactive) | > 100 µM (inactive) | > 100 µM (inactive) | 53.2 µM (inactive) | > 100 µM (inactive) | > 100 µM (inactive) | > 100 µM (inactive) | > 100 µM (inactive) | > 100 µM (inactive) | – | > 100 µM (inactive) | > 100 µM (inactive) | 82.2 µM (inactive) | > 100 µM (inactive) | > 100 µM (inactive) | > 100 µM (inactive) | > 100 µM (inactive) | > 100 µM (inactive) | > 100 µM (inactive) |
| O=S(=O)(O)c1ccc2cccc(/N=N\c3c(O)ccc4ccccc34)c2c1 | > 100 µM (inactive) | > 100 µM (inactive) | > 100 µM (inactive) | > 100 µM (inactive) | – | > 100 µM (inactive) | > 100 µM (inactive) | > 100 µM (inactive) | > 100 µM (inactive) | > 100 µM (inactive) | > 100 µM (inactive) | > 100 µM (inactive) | > 100 µM (inactive) | > 100 µM (inactive) | > 100 µM (inactive) | > 100 µM (inactive) | > 100 µM (inactive) | > 100 µM (inactive) | > 100 µM (inactive) | – |
| O=C(O)Cn1ccc(=O)c2ccc([N+](=O)[O-])cc21 | > 100 µM (inactive) | > 100 µM (inactive) | > 100 µM (inactive) | > 100 µM (inactive) | > 100 µM (inactive) | > 100 µM (inactive) | > 100 µM (inactive) | > 100 µM (inactive) | > 100 µM (inactive) | > 100 µM (inactive) | > 100 µM (inactive) | > 100 µM (inactive) | > 100 µM (inactive) | > 100 µM (inactive) | > 100 µM (inactive) | > 100 µM (inactive) | > 100 µM (inactive) | > 100 µM (inactive) | > 100 µM (inactive) | – |
| COc1cc2c(cc1OC)C(=O)/C(=C/c1cc(C)cc(C)c1)C2 | 0.131 µM (active) | 12.9 µM (inactive) | 11.3 µM (inactive) | 0.0735 µM (active) | 0.0385 µM (active) | 0.0232 µM (active) | < 0.0203 µM (active) | 0.148 µM (active) | 0.385 µM (active) | < 0.0146 µM (active) | – | 0.172 µM (active) | 0.065 µM (active) | 0.318 µM (active) | 21.1 µM (inactive) | 0.561 µM (active) | 0.0443 µM (active) | 1.95 µM (inactive) | 0.0601 µM (active) | 0.0807 µM (active) |

From ChEMBL document CHEMBL1201862, “PubChem BioAssay data set” (2004)
